Laboratory results: PMC4394464, “Identification and Pharmacokinetics of Multiple Potential Bioactive Constituents after Oral Administration of Radix Astragali on Cyclophosphamide-Induced Immunosuppression in Balb/c Mice” (International Journal of Molecular Sciences, 2015)
Where two headings read alike, the source gives them in different places.

Columns and labels:
[1] = Profiling of absorbed constituents and metabolites in mice plasma after oral administration of RA (UFLC-DAD-Q-TOF-MS/MS); details: oral RA extract 6 g/kg BW; cyclophosphamide-induced immunosuppressed Balb/c mice; plasma sampled 0.25-36 h; '-' = not detected
Procedure: The peaks that appeared at the same position in the total ion chromatograms of both the dosed mice bio-samples and the RA extract, but not in the chromatograms of the controlled mice bio-samples, were regarded as absorbed constituents [22].
Following randomization into study groups, mice (6/group/male) received intraperitoneal injection once daily of cyclophosphamide (i.p. 80 mg/kg BW) for 6 days. Additionally, the control group was injected intraperitoneally with sterile physiological saline. […] Plasma was harvested by centrifugation at 3000× g for 10 min and then kept frozen at −70 °C until analysis.
After being vortexed for 1 min, the sample was centrifuged at 13,000× g at 4 °C for 30 min. The supernate was transferred into a fresh tube and evaporated with nitrogen. Then, the residue was dissolved in a 60-μL mobile phase with vortex mixing for 3 min and centrifuged at 13,000× g for 30 min. Finally, 10 μL of the supernatant were injected into the UFLC/DAD/Q-TOF-MS/MS system.
The multiple constituents in RA and the absorbed compounds in mice plasma were identified by the ultra-fast liquid chromatography/diode-array detector/quadrupole time-of-flight tandem mass spectrometry (UFLC/DAD/Q-TOF-MS/MS) method.

[2] = Pharmacokinetics of five main constituents in immunosuppressive mice plasma after oral administration of RA (HPLC-MS/MS); format: in vivo, Balb/c mice
Procedure: The maximum plasma concentration (Cmax) and the time of maximum plasma concentration (tmax) were obtained from the observed data (Table 3). The plasma concentration-time profiles for calycosin-7-O-glucoside, ononin, calycosin, formononetin and astragaloside IV are shown in Figure 4.
To quantify calycosin-7-O-glucoside, ononin, calycosin, formononetin and astragaloside IV in mice, a 10-μL IS solution was added into 50 μL of plasma and mixed for 30 s. Then, 1 mL ethyl acetate was added to the tube and vortexed for 3 min. […] Ten microliters of the supernatant were injected into the HPLC-MS/MS system.
The quantification was performed by an LC-MS/MS system, which consisted of an Agilent 1200 HPLC series system and an Agilent 6410 triple quadrupole mass spectrometer (Agilent Technol., Santa Clara, CA, USA) equipped with an electrospray ionization source. Samples were separated by a rapid resolution HT C18 column (2.1 mm × 50 mm, 1.8 μm, Agilent Technol.) at 30 °C. The mobile phase consisted of 0.1 formic acid both in methanol (A) and water (B) using a gradient elution program of 25%–50% A (0–5 min) and 50%–90% (5–10 min). The flow rate was 0.2 mL/min, and the injection volume was 10 μL. Detection was performed in the positive ion mode using multiple reaction monitoring (MRM) of the m/z 447.1/285.0 for calycosin-7-O-glucoside, m/z 431.1/269.0 for ononin, m/z 285.0/137.0 for calycosin, m/z 269.0/213.0 for formononetin, m/z 807.4/627.3 for astragaloside IV and m/z 271.1/151.0 for naringenin.

[3] = male, Balb/c, mouse, in vivo, po, 6 g/kg

Which “Source: Dosed Plasma (time points at which the compound was detected)” value (“Source: Dosed Plasma” for short) [1] does the source give for CC(C)(O)[C@@H]1CC[C@](C)(C2[C@@H](O)C[C@@]3(C)[C@@H]4C[C@H](O[C@@H]5O[C@H](CO)[C@@H](O)[C@H](O)[C@H]5O)C5C(C)(C)[C@@H](O[C@@H]6OC[C@@H](O)[C@H](O)[C@H]6O)CC[C@@]56C[C@@]46CC[C@]23C)O1 (single isomer, unassigned) [Peak 45, Astragaloside IV] here?
The value was 0.25 to 24 h.

What about the AUC(0-t) ([2]; male, mouse, in vivo, 6 g/kg BW, oral RA, immunosuppressive Balb/c mice plasma, read-out: AUC0–t) of the same molecule?
The AUC(0-t) was 695 ± 179 ng·h/mL.

What about the Cmax ([2]; male, mouse, in vivo, 6 g/kg BW, oral RA, immunosuppressive Balb/c mice plasma, read-out: Cmax) of the same molecule?
Its Cmax is 129 ng/mL.

And the AUC(0-t) ([2]; male, mouse, in vivo, oral RA extract 6 g/kg BW, immunosuppressive Balb/c mice plasma, 0-36 h, read-out: AUC(0–t))?
Its AUC(0-t) is 695 ± 179 ng·h/mL.

What about the AUC(0-inf) ([2]; male, mouse, in vivo, oral RA extract 6 g/kg BW, immunosuppressive Balb/c mice plasma, read-out: AUC(0–∞)) of the same molecule?
The AUC(0-inf) was 722 ± 197 ng·h/mL.

What about the Cmax ([2]; male, mouse, in vivo, oral RA extract 6 g/kg BW, immunosuppressive Balb/c mice plasma, read-out: Cmax) of the same molecule?
Its Cmax is 129 ng/mL.

What about the half-life ([2]; male, mouse, in vivo, oral RA extract 6 g/kg BW, immunosuppressive Balb/c mice plasma, read-out: t1/2z (converted)) of the same molecule?
Its half-life is 3.48 ± 1.15 h.

What about the Tmax ([2]; male, mouse, in vivo, oral RA extract 6 g/kg BW, immunosuppressive Balb/c mice plasma, read-out: tmax) of the same molecule?
The Tmax was 1.5 h.

With COc1ccc(-c2coc3cc(O)ccc3c2=O)cc1O [Peak 37, Calycosin] as the molecule, how does the “Source: Dosed Plasma” value [1] read?
The value was 0.25 to 24 h.

What about the “double-peak phenomenon, time of second peak” value ([2]; after oral administration of RA, immunosuppressive Balb/c mice plasma) of the same molecule?
The value was 6 h.

What about the AUC(0-t) ([2]; male, mouse, oral RA extract 6 g/kg BW, immunosuppressive Balb/c mice plasma, 0-36 h, read-out: AUC(0–t)) of the same molecule?
Its AUC(0-t) is 136 ± 41.4 ng·h/mL.

And the AUC(0-inf) ([2]; male, mouse, oral RA extract 6 g/kg BW, immunosuppressive Balb/c mice plasma, read-out: AUC(0–∞))?
The AUC(0-inf) was 155 ± 37.7 ng·h/mL.

What about the Cmax ([2]; male, mouse, oral RA extract 6 g/kg BW, immunosuppressive Balb/c mice plasma, read-out: Cmax) of the same molecule?
Its Cmax is 33 ng/mL.

And the half-life ([2]; male, mouse, oral RA extract 6 g/kg BW, immunosuppressive Balb/c mice plasma, read-out: t1/2z (converted))?
The half-life was 2.21 ± 0.92 h.

What about the Tmax ([2]; male, mouse, oral RA extract 6 g/kg BW, immunosuppressive Balb/c mice plasma, read-out: tmax) of the same molecule?
Its Tmax is 1.5 h.

For COc1ccc(-c2coc3cc(O)ccc3c2=O)cc1 [Peak 39, Formononetin], which “Source: Dosed Plasma” value [1] is on record?
Its value is 0.25 to 24 h.

And the “double-peak phenomenon, time of second peak” value ([2]; male, Balb/c, mouse, in vivo, po)?
The value was 6 h.

And the AUC(0-inf) [2, 3]?
Its AUC(0-inf) is 256 ± 45.7 ng·h/mL.

What about the AUC(0-t) [2, 3] of the same molecule?
The AUC(0-t) was 233 ± 47.8 ng·h/mL.

And the Cmax [2, 3]?
The Cmax was 47.9 ng/mL.

And the Tmax [2, 3]?
Its Tmax is 2 h.

And the half-life [2, 3]?
The half-life was 3.99 ± 1.03 h.
